Results as given in patent US9149038B2, “4-amino-6-(heterocyclic)picolinates and 6-amino-2-(heterocyclic)pyrimidine-4-carboxylates and their use as herbicides” (Dow AgroSciences LLC, priority 2013, dated 2015).
Read-outs that look alike come from different tables or passages of the source.

Tested on: Wheat and Barley and weed species
Assay: Post-Emergent Test III: postemergent herbicidal activity in wheat and barley, visual rating after 21 d and probit GR20/GR50/GR80/GR90 (Tables 9-13)
Format: in vivo
Conditions: for pest or weed control at 17.5 g/ha / pest or weed control at 35 g/ha / pest or weed control at 70 g/ha: post-emergence, 504 h
Description: Herbicidal evaluations were made visually on a scale of 0 to 100 where 0 represents no activity and 100 represents complete plant death.
Seeds of the desired test plant species were planted in Sun Gro MetroMix® 306 planting mixture, which typically has a pH of 6.0 to 6.8 and an organic matter content of about 30 percent, in plastic pots with a surface area of 103.2 square centimeters (cm^2). When required to ensure good germination and healthy plants, a fungicide treatment and/or other chemical or physical treatment was applied. The plants were grown for 7-36 days (d) in a greenhouse with an approximate 14 hour (h) photoperiod which was maintained at about 18° C. during the day and 17° C. during the night. Nutrients and water were added on a regular basis and supplemental lighting was provided with overhead metal halide 1000-Watt lamps as necessary. The plants were employed for testing when they reached the second or third true leaf stage.
A weighed amount, determined by the highest rate to be tested, of each test compound was placed in a 25 mL glass vial and was dissolved in 4 mL of a 97:3 v/v mixture of acetone and DMSO to obtain concentrated stock solutions. […] The concentrated stock solutions obtained were diluted with 20 mL of an aqueous mixture containing acetone, water, isopropyl alcohol, DMSO, Agri-Dex crop oil concentrate, and X-77 surfactant in a 48:39:10:1.5:1.5:0.02 v/v ratio to obtain spray solutions containing the highest application rates. Additional application rates were obtained by serial dilution of 12 mL of the high rate solution into a solution containing 2 mL of a 97:3 v/v mixture of acetone and DMSO and 10 mL of an aqueous mixture containing acetone, water, isopropyl alcohol, DMSO, Agri-Dex crop oil concentrate, and X-77 surfactant in a 48:39:10:1.5:1.5:0.02 v/v ratio to obtain ½×, ¼×, ⅛× and 1/16× rates of the high rate. Compound requirements are based upon a 12 mL application volume at a rate of 187 liters per hectare (L/ha). Formulated compounds were applied to the plant material with an overhead Mandel track sprayer equipped with 8002E nozzles calibrated to deliver 187 L/ha over an application area of 0.503 square meters at a spray height of 18 inches (43 cm) above the average plant canopy height. Control plants were sprayed in the same manner with the solvent blank.
The treated plants and control plants were placed in a greenhouse as described above and watered by subirrigation to prevent wash-off of the test compounds. After 21 d, the condition of the test plants as compared with that of the untreated plants was determined visually and scored on a scale of 0 to 100 percent where 0 corresponds to no injury and 100 corresponds to complete kill and are presented as indicated in Table 4.
By applying the well-accepted probit analysis as described by J. Berkson in Journal of the American Statistical Society, 48, 565 (1953) and by D. Finney in “Probit Analysis” Cambridge University Press (1952), herbicidal injury of a specific compound at various rates can be used to calculate GR20, GR50, GR80 and GR90 values, which are defined as growth reduction factors that correspond to the effective dose of herbicide required to provide plant growth reduction (GR) of 20 percent, 50 percent, 80 percent and 90 percent, respectively. Probit analysis was applied to data collected from multiple dose rates of individual compounds utilizing the procedures explained in the following examples. The data for some of the dose rates and analysis of all of the dose rates are captured in the following tables.

## COC(=O)c1nc(-c2ccc(Br)c3c2OC(F)(F)O3)c(F)c(N)c1Cl [Compound 78, Methyl 4-amino-6-(7-bromo-2,2-difluorobenzo[d][1,3]dioxol-4-yl)-3-chloro-5-fluoropicolinate]
CIRAR Canada thistle (Cirsium arvense), 17.5 g ai/ha
  Visual Growth Reduction (%) 21 Days After Application CIRAR: B (85-94)
CIRAR Canada thistle (Cirsium arvense), 35 g ai/ha
  Visual Growth Reduction (%) 21 Days After Application CIRAR: B (85-94)
CIRAR Canada thistle (Cirsium arvense), 70 g ai/ha
  Visual Growth Reduction (%) 21 Days After Application CIRAR: B (85-94)
CIRAR Canada thistle (Cirsium arvense), growth reduction of 50%, probit analysis
  GR50 CIRAR: 2 g ai/ha
CIRAR Canada thistle (Cirsium arvense), growth reduction of 80%, probit analysis
  GR80 CIRAR: 7 g ai/ha
CIRAR Canada thistle (Cirsium arvense), growth reduction of 90%, probit analysis
  GR90 CIRAR: 12 g ai/ha
GALAP cleavers (Galium aparine), 17.5 g ai/ha
  Visual Growth Reduction (%) 21 Days After Application GALAP: D (60-74)
GALAP cleavers (Galium aparine), 35 g ai/ha
  Visual Growth Reduction (%) 21 Days After Application GALAP: D (60-74)
GALAP cleavers (Galium aparine), 70 g ai/ha
  Visual Growth Reduction (%) 21 Days After Application GALAP: D (60-74)
GALAP cleavers (Galium aparine), growth reduction of 50%, probit analysis
  GR50 GALAP: 1 g ai/ha
GALAP cleavers (Galium aparine), growth reduction of 80%, probit analysis
  GR80 GALAP: >140 g ai/ha
GALAP cleavers (Galium aparine), growth reduction of 90%, probit analysis
  GR90 GALAP: >140 g ai/ha
HORVS barley, spring (crop), growth reduction of 20%, probit analysis
  GR20 HORVS: 13 g ai/ha
Hordeum vulgare, HORVS barley, spring (crop), 17.5 g ai/ha, read-out: Visual Growth Reduction (%) 21 Days After Application HORVS
  pest or weed control at 17.5 g/ha: 30 to 44%
Hordeum vulgare, HORVS barley, spring (crop), 35 g ai/ha, read-out: Visual Growth Reduction (%) 21 Days After Application HORVS
  pest or weed control at 35 g/ha: 45 to 59%
Hordeum vulgare, HORVS barley, spring (crop), 70 g ai/ha, read-out: Visual Growth Reduction (%) 21 Days After Application HORVS
  pest or weed control at 70 g/ha: 60 to 74%
KCHSC kochia (Kochia scoparia), 17.5 g ai/ha
  Visual Growth Reduction (%) 21 Days After Application KCHSC: B (85-94)
KCHSC kochia (Kochia scoparia), 35 g ai/ha
  Visual Growth Reduction (%) 21 Days After Application KCHSC: A (95-100)
KCHSC kochia (Kochia scoparia), 70 g ai/ha
  Visual Growth Reduction (%) 21 Days After Application KCHSC: A (95-100)
KCHSC kochia (Kochia scoparia), growth reduction of 50%, probit analysis
  GR50 KCHSC: 2 g ai/ha
KCHSC kochia (Kochia scoparia), growth reduction of 80%, probit analysis
  GR80 KCHSC: 9 g ai/ha
KCHSC kochia (Kochia scoparia), growth reduction of 90%, probit analysis
  GR90 KCHSC: 19 g ai/ha
LAMPU purple deadnettle (Lamium purpureum), 17.5 g ai/ha
  Visual Growth Reduction (%) 21 Days After Application LAMPU: D (60-74)
LAMPU purple deadnettle (Lamium purpureum), 35 g ai/ha
  Visual Growth Reduction (%) 21 Days After Application LAMPU: C (75-84)
LAMPU purple deadnettle (Lamium purpureum), 70 g ai/ha
  Visual Growth Reduction (%) 21 Days After Application LAMPU: B (85-94)
LAMPU purple deadnettle (Lamium purpureum), growth reduction of 50%, probit analysis
  GR50 LAMPU: 2 g ai/ha
LAMPU purple deadnettle (Lamium purpureum), growth reduction of 80%, probit analysis
  GR80 LAMPU: 46 g ai/ha
LAMPU purple deadnettle (Lamium purpureum), growth reduction of 90%, probit analysis
  GR90 LAMPU: >140 g ai/ha
MATCH wild chamomile (Matricaria recutita L.), 17.5 g ai/ha
  Visual Growth Reduction (%) 21 Days After Application MATCH: G (0-29)
MATCH wild chamomile (Matricaria recutita L.), 35 g ai/ha
  Visual Growth Reduction (%) 21 Days After Application MATCH: F (30-44)
MATCH wild chamomile (Matricaria recutita L.), 70 g ai/ha
  Visual Growth Reduction (%) 21 Days After Application MATCH: E (45-59)
MATCH wild chamomile (Matricaria recutita L.), growth reduction of 50%, probit analysis
  GR50 MATCH: 63 g ai/ha
MATCH wild chamomile (Matricaria recutita L.), growth reduction of 80%, probit analysis
  GR80 MATCH: >140 g ai/ha
MATCH wild chamomile (Matricaria recutita L.), growth reduction of 90%, probit analysis
  GR90 MATCH: >140 g ai/ha
PAPRH common poppy (Papaver rhoeas), 17.5 g ai/ha
  Visual Growth Reduction (%) 21 Days After Application PAPRH: F (30-44)
PAPRH common poppy (Papaver rhoeas), 35 g ai/ha
  Visual Growth Reduction (%) 21 Days After Application PAPRH: D (60-74)
PAPRH common poppy (Papaver rhoeas), 70 g ai/ha
  Visual Growth Reduction (%) 21 Days After Application PAPRH: C (75-84)
PAPRH common poppy (Papaver rhoeas), growth reduction of 50%, probit analysis
  GR50 PAPRH: 44 g ai/ha
PAPRH common poppy (Papaver rhoeas), growth reduction of 80%, probit analysis
  GR80 PAPRH: >140 g ai/ha
PAPRH common poppy (Papaver rhoeas), growth reduction of 90%, probit analysis
  GR90 PAPRH: >140 g ai/ha
SASKR Russian thistle (Salsola iberica), 17.5 g ai/ha
  Visual Growth Reduction (%) 21 Days After Application SASKR: B (85-94)
SASKR Russian thistle (Salsola iberica), growth reduction of 50%, probit analysis
  GR50 SASKR: 0.4 g ai/ha
SASKR Russian thistle (Salsola iberica), growth reduction of 80%, probit analysis
  GR80 SASKR: 9 g ai/ha
SASKR Russian thistle (Salsola iberica), growth reduction of 90%, probit analysis
  GR90 SASKR: 42 g ai/ha
SINAR wild mustard (Sinapis arvensis), 17.5 g ai/ha
  Visual Growth Reduction (%) 21 Days After Application SINAR: A (95-100)
SINAR wild mustard (Sinapis arvensis), 35 g ai/ha
  Visual Growth Reduction (%) 21 Days After Application SINAR: A (95-100)
SINAR wild mustard (Sinapis arvensis), 70 g ai/ha
  Visual Growth Reduction (%) 21 Days After Application SINAR: A (95-100)
SINAR wild mustard (Sinapis arvensis), growth reduction of 50%, probit analysis
  GR50 SINAR: 1 g ai/ha
SINAR wild mustard (Sinapis arvensis), growth reduction of 80%, probit analysis
  GR80 SINAR: 3 g ai/ha
SINAR wild mustard (Sinapis arvensis), growth reduction of 90%, probit analysis
  GR90 SINAR: 8 g ai/ha
TRZAS wheat, spring (crop), growth reduction of 20%, probit analysis
  GR20 TRZAS: 20 g ai/ha
Triticum aestivum, TRZAS wheat, spring (crop), 17.5 g ai/ha, read-out: Visual Growth Reduction (%) 21 Days After Application TRZAS
  pest or weed control at 17.5 g/ha: 0 to 29%
Triticum aestivum, TRZAS wheat, spring (crop), 35 g ai/ha, read-out: Visual Growth Reduction (%) 21 Days After Application TRZAS
  pest or weed control at 35 g/ha: 30 to 44%
Triticum aestivum, TRZAS wheat, spring (crop), 70 g ai/ha, read-out: Visual Growth Reduction (%) 21 Days After Application TRZAS
  pest or weed control at 70 g/ha: 45 to 59%
VERPE bird's-eye speedwell (veronica persica), 17.5 g ai/ha
  Visual Growth Reduction (%) 21 Days After Application VERPE: G (0-29)
VERPE bird's-eye speedwell (veronica persica), 35 g ai/ha
  Visual Growth Reduction (%) 21 Days After Application VERPE: D (60-74)
VERPE bird's-eye speedwell (veronica persica), 70 g ai/ha
  Visual Growth Reduction (%) 21 Days After Application VERPE: C (75-84)
VERPE bird's-eye speedwell (veronica persica), growth reduction of 50%, probit analysis
  GR50 VERPE: 33 g ai/ha
VERPE bird's-eye speedwell (veronica persica), growth reduction of 80%, probit analysis
  GR80 VERPE: 77 g ai/ha
VERPE bird's-eye speedwell (veronica persica), growth reduction of 90%, probit analysis
  GR90 VERPE: 119 g ai/ha
VIOTR wild pansy (Viola tricolor), 17.5 g ai/ha
  Visual Growth Reduction (%) 21 Days After Application VIOTR: F (30-44)
VIOTR wild pansy (Viola tricolor), 35 g ai/ha
  Visual Growth Reduction (%) 21 Days After Application VIOTR: F (30-44)
VIOTR wild pansy (Viola tricolor), 70 g ai/ha
  Visual Growth Reduction (%) 21 Days After Application VIOTR: D (60-74)
VIOTR wild pansy (Viola tricolor), growth reduction of 50%, probit analysis
  GR50 VIOTR: 47 g ai/ha
VIOTR wild pansy (Viola tricolor), growth reduction of 80%, probit analysis
  GR80 VIOTR: >140 g ai/ha
VIOTR wild pansy (Viola tricolor), growth reduction of 90%, probit analysis
  GR90 VIOTR: >140 g ai/ha
